{
  "source": "patent US20040127439A1",
  "about": "“Introduction of the wld gene for prevention of axonal degeneration in neurological diseases” (priority 2004, published 2004)",
  "key": {"[1]": {"test_system": "Wld^S cultured neurites", "experiment": "Vincristine neuropathy in Wld^S mouse DRG cultures", "format": "cell-based", "settings": "for halo area at day 10 compared to day 0 / length of longest axons at day 10 compared to day 0: Wld^S", "procedure": "DRGs were allowed to mature for 5 days to create a lush halo of neurites. […] This date was defined as treatment day 0. […] Cultures were monitored and imaged on day 0, day 4, day 8 and day 10 of treatment using video microscopy.\nMeasures of axonal survival were the length of longest remaining axon, and the area of remaining DRG halo, as determined by serial phase-contrast video microscopy (FIG. 6). The axonal length was measured from the center of the DRG to the visible distal end of the axon. […] Data were thus analyzed as percent of day 0."}, "[2]": {"test_system": "C57BL/6 DRG axons", "experiment": "Vincristine withdrawal in C57BL/6 mouse DRG cultures", "format": "cell-based", "settings": "0.05 μM vincristine for 24 hours, 4 days after exposure", "procedure": "The methods for DRG culture have been previously described.\nCultures were measured for length of longest axon and area of the DRG halo at days 4, 8, 12, 16 and 20. Lengths were measured from the center of the DRG to the visible distal end of the axon, and areas were calculated by tracing the circumference crested by connecting the tips of the remaining axons. […] Comparisons were made between quantitative data for C57BL/6 and Wld^S axons. For assessment of growth, day 4 observations in Wld^S were compared to all succeeding days using ANOVA for repeated measures."}},
  "data": [
    {"substance": "Vincristine sulfate salt", "values": [
      {"measurement": "halo area at day 10 compared to day 0", "setting": "[1]; vincristine 0.01 μM", "result": "64.75±2.62", "unit": "%"},
      {"measurement": "length of longest axons at day 10 compared to day 0", "setting": "[1]; vincristine 0.01 μM", "result": "84.33±2.54", "unit": "%"},
      {"measurement": "halo area at day 10 compared to day 0", "setting": "[1]; vincristine 0.1 μM", "result": "7.92±3.83", "unit": "%"},
      {"measurement": "length of longest axons at day 10 compared to day 0", "setting": "[1]; vincristine 0.1 μM", "result": "10.17±3.22", "unit": "%"},
      {"measurement": "Area of DRG Halo", "setting": "[1]; vincristine 0.01 μM, Day 4, Wld^S", "result": "7.27 ± 0.51", "unit": "mm^2"},
      {"measurement": "Area of DRG Halo", "setting": "[1]; vincristine 0.01 μM, Day 8, Wld^S", "result": "6.50 ± 0.56", "unit": "mm^2"},
      {"measurement": "Area of DRG Halo", "setting": "[1]; vincristine 0.01 μM, Day 10, Wld^S", "result": "5.60 ± 0.51", "unit": "mm^2"},
      {"measurement": "Area of DRG Halo", "setting": "[1]; vincristine 0.02 μM, Day 4, Wld^S", "result": "5.95 ± 0.72", "unit": "mm^2"},
      {"measurement": "Area of DRG Halo", "setting": "[1]; vincristine 0.02 μM, Day 8, Wld^S", "result": "3.39 ± 0.64", "unit": "mm^2"},
      {"measurement": "Area of DRG Halo", "setting": "[1]; vincristine 0.02 μM, Day 10, Wld^S", "result": "2.53 ± 0.59", "unit": "mm^2"},
      {"measurement": "Area of DRG Halo", "setting": "[1]; vincristine 0.05 μM, Day 4, Wld^S", "result": "4.17 ± 0.45", "unit": "mm^2"},
      {"measurement": "Area of DRG Halo", "setting": "[1]; vincristine 0.05 μM, Day 8, Wld^S", "result": "1.63 ± 0.48", "unit": "mm^2"},
      {"measurement": "Area of DRG Halo", "setting": "[1]; vincristine 0.05 μM, Day 10, Wld^S", "result": "0.80 ± 0.36", "unit": "mm^2"},
      {"measurement": "Area of DRG Halo", "setting": "[1]; vincristine 0.1 μM, Day 4, Wld^S", "result": "5.30 ± 0.86", "unit": "mm^2"},
      {"measurement": "Area of DRG Halo", "setting": "[1]; vincristine 0.1 μM, Day 8, Wld^S", "result": "2.00 ± 0.66", "unit": "mm^2"},
      {"measurement": "Area of DRG Halo", "setting": "[1]; vincristine 0.1 μM, Day 10, Wld^S", "result": "0.59 ± 0.28", "unit": "mm^2"},
      {"measurement": "DRG area, % of control values", "setting": "[2]", "result": 32, "unit": "%"},
      {"measurement": "axon length, % of control values", "setting": "[2]", "result": 35, "unit": "%"}
    ]}
  ]
}
